Measurements published in patent publication US10487362B2, “Methods for diagnosing cancer based on small nucleolar RNA HBII-52” (Health Research, Inc., priority 2013, dated 2019).
“Also recorded” adds a separate entry of the source.

Key:
TRAMP-C2G cells = assay: Cell viability of TRAMP-C2G stable cell lines (Cell-Titer Fluor, 72 h growth assay); type: cell-based, mouse; conditions: 72 h culture; for influence on the effect of MBII-52 or SB 242,084 on cell viability: TRAMP-C2G cells
Experimental: FIG. 10. MBII-52 was stably overexpressed (>60-fold overexpression) in TRAMP-C2G cells from the pSilencer CMV 4.1 vector. Cell viability was measured (n=5, error bars are SEM) after 72 h culture using Cell-Titer Fluor cell viability assay and normalized to scramble-transfected, vehicle-treated control. One-sample t-tests were performed to compare experimental groups with scramble/vehicle control. Two-tailed t-tests were used to compare the two SB 242,084 treatment groups with each other. * indicated p<0.05 for either test. MBII-52 increases cell viability, while SB 242,084 inhibits it.
To test the hypothesis that HB/MBII-52 can activate 5-HT2cR and promote cancer progression stable cell lines were generated from TRAMP C2D and C2G cells that overexpress MBII-52 from pSilencer 4.1 CMV vector along with control cells expressing a scrambled RNA that has no homology to the mouse or human genome.
Numerous downstream pathways activated by 5-HT2cR have been studied in neuronal cell lines with a focus on neurological development and disease. The pathways relevant to this disclosure are Erk, PI3-K/Akt and RhoA (36,39). Each has previously been studied and targeted in PCa and other cancers. Activation of these pathways during PCa progression or in vitro can directly propagate a transition to malignancy. For example, Erk upregulates hypoxia inducible factor 1 alpha (HIF1α) and therefore vascular endothelial growth factor (Vegf) in response to hypoxia in rats (40). Vegf secretion also appears to be regulated by Erk in LNCaP cell lines (41). Erk is also able to transactivate the androgen receptor (AR) independent of androgen, by phosphorylating steroid receptor co-activator-1 (SRC-1), which then binds AR resulting in ligand-independent activation of AR. Therefore, Erk directly contributes to androgen-independence (41). […] Indeed, stable cell lines overexpressing MBII-52 appeared more proliferative then scramble control stable cell lines in a 72 h growth assay, after which viability was measured using Cell-Titer Fluor Assay (n=5) (FIG. 10).

DU145 clones DU6 and DU2 = assay: Cell viability of DU145 HBII-52 clones in response to 5-HT; type: cell-based, human; conditions: high concentrations; HBII-52 overexpressing DU6 compared to low expressing DU2; 3 independent experiments
Excerpt: FIG. 17. Overexpression of HBII-52 affects cell viability in response to 5-HT treatment. […] Data are represented as the average+/−SEM of 3 independent experiments

MBII-52 = conditions: C2G cells, serum starvation 72 h, DHT supplementation
Excerpt: Serum starvation induces NED of PCa cell lines (25). […] Furthermore, NED is associated with CR-PCa in vivo, supporting the importance of factors that induce NED as initiators of transition to androgen-independence (26).

5-HT2cR [1] = molecular target: T1, 5-HT2cR (Homo sapiens, UniProt P28335); conditions: in vitro and in vivo; cited from earlier work
T1 sequence (P28335 33-458): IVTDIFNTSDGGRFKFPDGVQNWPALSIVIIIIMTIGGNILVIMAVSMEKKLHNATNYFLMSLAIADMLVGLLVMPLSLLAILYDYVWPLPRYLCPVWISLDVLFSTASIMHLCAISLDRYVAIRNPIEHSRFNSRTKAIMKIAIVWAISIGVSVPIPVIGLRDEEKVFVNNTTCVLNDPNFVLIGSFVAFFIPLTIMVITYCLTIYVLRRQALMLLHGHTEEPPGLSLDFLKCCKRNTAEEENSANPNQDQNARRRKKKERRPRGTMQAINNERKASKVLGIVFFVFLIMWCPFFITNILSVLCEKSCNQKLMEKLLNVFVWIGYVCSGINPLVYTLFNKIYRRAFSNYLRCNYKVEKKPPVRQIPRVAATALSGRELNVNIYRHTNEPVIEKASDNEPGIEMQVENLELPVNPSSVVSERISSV

LNCaP-C4-2 cells = assay: Growth inhibition under serum starvation, LNCaP-C4-2; type: cell-based, human; conditions: LNCaP-C4-2, serum starvation vs serum
Excerpt: (§1) FIG. 12. […] Data is representative of multiple independent experiments.
(§2) Our tests indicate that SB 242,084 is growth-inhibitory in human PCa cell lines (FIG. 11).

[2] = compared with SB206,553; cited from earlier work
[3] = test system: Human Prostate cancer cell lines; assay: Cell viability of human prostate cancer cell lines treated for 72 h; type: cell-based; conditions: 72 h treatment, 3 independent experiments
Experimental: FIG. 11. Human Prostate cancer cell lines were treated with SB 242,084 for 72 h. […] Data is the average of 3 independent experiments with error bars indicating SEM.
as §2

5-HT2cR [4] = molecular target: T1, 5-HT2cR; conditions: cited from earlier work
PC3 cells = assay: Growth inhibition under serum starvation, PC3; type: cell-based, human; conditions: PC3, serum starvation vs serum
Excerpt: as §1, §2

Erk = conditions: cited from earlier work

| SMILES | influence on the effect of MBII-52 or SB 242,084 on cell viability (TRAMP-C2G cells) | cytotoxic response (cell viability) (DU145 clones DU6 and DU2) | MBII-52 expression increase caused by serum starvation (MBII-52) | cell viability (TRAMP-C2G cells; scramble and MBII-52 overexpressing TRAMP-C2G cells, n=5) | antagonist activity (5-HT2cR [1]) | growth inhibition upon serum starvation (LNCaP-C4-2 cells) | resistance to metabolic methylation [2] | cell viability / growth inhibition [3] | potency relative to SB 206,553 (5-HT2cR [4]) | selectivity for 5-HT2cR over 5-HT2aR (5-HT2cR [4]) | selectivity for 5-HT2cR over 5-HT2bR (5-HT2cR [4]) | growth inhibition upon serum starvation (PC3 cells) | activation of downstream targets including Erk (Erk) |
| --- | --- | --- | --- | --- | --- | --- | --- | --- | --- | --- | --- | --- | --- |
| NCCc1c[nH]c2ccc(O)cc12 [5-HT, serotonin] | Neither DHT nor 5-HT appear to have much influence | increased cytotoxic response |  |  |  |  |  |  |  |  |  |  |  |
| C[C@]12CCC(=O)C[C@@H]1CC[C@@H]1[C@@H]2CC[C@]2(C)[C@@H](O)CC[C@@H]12 [DHT, 5α-dihydrotestosterone] | Neither DHT nor 5-HT appear to have much influence |  | almost completely block the increase in MBII-52; also recorded: abrogates the observed upregulation of MBII-52 |  |  |  |  |  |  |  |  |  |  |
| Cc1cc2c(cc1Cl)N(C(=O)Nc1ccc(Oc3cccnc3C)nc1)CC2 [SB 242,084] |  |  |  | inhibits; also recorded: effective in both scramble and MBII-52 overexpressing cells | potent antagonist activity | significantly (p<0.05) further improved | more resistant to the metabolic methylation than SB206,553 | dose-dependent decrease in cell viability levels; also recorded: growth-inhibitory | increased potency | greater than 100 fold | greater than 100 fold | significantly (p<0.05) further improved | inhibits activation |
